Data published in ChEMBL document CHEMBL1129928, “Selectin-ligand interactions revealed by molecular dynamics simulation in solution” (J Med Chem, 1997).

What was measured:
Format in all cases: cell-based, Endothelial cell
P-selectin = target: T1, P-selectin (Homo sapiens, UniProt P16109); experiment: Inhibitory activity against Selectin P expressed in endothelial cells
T1 sequence (P16109 whole entry): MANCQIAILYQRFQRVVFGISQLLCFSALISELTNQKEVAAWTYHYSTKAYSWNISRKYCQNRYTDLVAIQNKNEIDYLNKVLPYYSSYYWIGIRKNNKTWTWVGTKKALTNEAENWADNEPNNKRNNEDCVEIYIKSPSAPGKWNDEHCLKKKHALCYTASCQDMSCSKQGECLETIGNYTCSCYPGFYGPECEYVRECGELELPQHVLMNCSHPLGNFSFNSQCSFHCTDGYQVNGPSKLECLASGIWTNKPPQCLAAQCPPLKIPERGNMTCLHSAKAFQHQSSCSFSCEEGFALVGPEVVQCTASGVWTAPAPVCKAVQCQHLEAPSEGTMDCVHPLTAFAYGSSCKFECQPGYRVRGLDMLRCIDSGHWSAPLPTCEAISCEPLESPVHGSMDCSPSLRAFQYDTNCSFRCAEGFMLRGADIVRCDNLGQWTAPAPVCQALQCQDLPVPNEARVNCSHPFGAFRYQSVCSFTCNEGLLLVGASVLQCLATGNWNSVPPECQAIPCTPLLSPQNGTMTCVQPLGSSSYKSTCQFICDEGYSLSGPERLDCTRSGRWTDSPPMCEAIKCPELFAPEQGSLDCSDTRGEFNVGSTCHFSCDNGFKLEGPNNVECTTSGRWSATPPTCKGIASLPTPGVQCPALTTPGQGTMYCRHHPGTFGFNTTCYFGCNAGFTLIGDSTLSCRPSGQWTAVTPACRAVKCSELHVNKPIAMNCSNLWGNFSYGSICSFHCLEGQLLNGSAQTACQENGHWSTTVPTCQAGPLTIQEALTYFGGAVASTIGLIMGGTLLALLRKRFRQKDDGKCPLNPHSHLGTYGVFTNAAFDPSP

E-selectin = target: T2, E-selectin (Homo sapiens, UniProt P16581); experiment: Inhibitory activity against E-selectin expressed in endothelial cells
T2 sequence (P16581 whole entry): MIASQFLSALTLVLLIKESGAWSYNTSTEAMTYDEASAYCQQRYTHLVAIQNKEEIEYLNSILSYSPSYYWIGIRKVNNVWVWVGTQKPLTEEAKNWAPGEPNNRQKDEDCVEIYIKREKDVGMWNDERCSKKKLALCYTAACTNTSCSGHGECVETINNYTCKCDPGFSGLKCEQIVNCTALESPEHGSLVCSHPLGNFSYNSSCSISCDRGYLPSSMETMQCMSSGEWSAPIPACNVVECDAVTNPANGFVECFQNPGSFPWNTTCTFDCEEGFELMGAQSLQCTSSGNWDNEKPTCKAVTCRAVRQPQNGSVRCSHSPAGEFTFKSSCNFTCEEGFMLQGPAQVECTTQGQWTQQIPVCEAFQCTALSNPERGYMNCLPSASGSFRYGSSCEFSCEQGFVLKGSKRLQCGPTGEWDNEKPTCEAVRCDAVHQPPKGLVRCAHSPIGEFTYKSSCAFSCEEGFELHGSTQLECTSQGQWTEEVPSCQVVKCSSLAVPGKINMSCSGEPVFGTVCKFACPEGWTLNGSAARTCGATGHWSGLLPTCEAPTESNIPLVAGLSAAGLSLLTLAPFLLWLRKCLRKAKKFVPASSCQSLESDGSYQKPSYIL

L-selectin = target: T3, L-selectin (Homo sapiens, UniProt P14151); experiment: Inhibitory activity against Selectin L expressed in endothelial cells
T3 sequence (P14151 whole entry): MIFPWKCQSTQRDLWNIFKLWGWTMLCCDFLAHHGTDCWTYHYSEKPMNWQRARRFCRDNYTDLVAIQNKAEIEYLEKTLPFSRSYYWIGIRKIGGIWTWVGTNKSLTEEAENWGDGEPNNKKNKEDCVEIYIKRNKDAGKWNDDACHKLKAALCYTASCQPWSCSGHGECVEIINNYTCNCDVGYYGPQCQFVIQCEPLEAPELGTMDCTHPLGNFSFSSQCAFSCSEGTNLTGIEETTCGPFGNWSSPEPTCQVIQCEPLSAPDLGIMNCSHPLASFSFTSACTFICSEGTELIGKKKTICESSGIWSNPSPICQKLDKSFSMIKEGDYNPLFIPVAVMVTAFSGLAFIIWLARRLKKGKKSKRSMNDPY

Row | IC50 (P-selectin) | IC50 (E-selectin) | IC50 (L-selectin) | SMILES
1 | 300 µM | > 1000 µM | > 1000 µM | C[C@@H]1O[C@@H](O[C@@H]2[C@H](O)[C@H](O)O[C@@H](CO)[C@H]2O[C@@H]2O[C@@H](CO)[C@H](O)[C@H](OS(=O)(=O)O)[C@@H]2O)[C@@H](O)[C@@H](O)[C@@H]1O
2 | > 1000 µM | 600 µM | > 1000 µM | CC(=O)N[C@H]1[C@H]([C@H](O)[C@H](O)CO)O[C@@](O[C@@H]2[C@H](O)[C@H](O[C@H]3[C@H](O[C@@H]4O[C@@H](C)[C@@H](O)[C@H](O)[C@@H]4O)[C@H](NC(C)=O)C(O)O[C@H]3CO)O[C@@H](CO)[C@@H]2O)(C(=O)O)C[C@H]1O (some centres undefined)
3 | 100 µM | 280 µM | 30 µM | CCCCCCCCCCCCCCC(CCCCCCCCCCCCCC)CO[C@@H]1O[C@H](CO)[C@@H](O[C@@H]2O[C@H](CO)[C@H](O)[C@H](OS(=O)(=O)O)[C@H]2O)[C@H](O[C@@H]2O[C@@H](C)[C@@H](O)[C@@H](O)[C@@H]2O)[C@H]1O
